Test results published in ChEMBL document CHEMBL5338748, “Structure-Based Discovery of a New Selectivity-Enabling Motif for the FK506-Binding Protein 51” (J Med Chem, 2023).
The source made the active and inactive calls. The calls are words filed in the database; no cut-off is given here.

Columns and labels:
[1] = target: T1, Peptidyl-prolyl cis-trans isomerase FKBP5 (Homo sapiens, UniProt Q13451); experiment: Binding affinity to FKBP51 (unknown origin) assessed as inhibition constant by fluorescence polarization assay
T1 sequence (Q13451 whole entry): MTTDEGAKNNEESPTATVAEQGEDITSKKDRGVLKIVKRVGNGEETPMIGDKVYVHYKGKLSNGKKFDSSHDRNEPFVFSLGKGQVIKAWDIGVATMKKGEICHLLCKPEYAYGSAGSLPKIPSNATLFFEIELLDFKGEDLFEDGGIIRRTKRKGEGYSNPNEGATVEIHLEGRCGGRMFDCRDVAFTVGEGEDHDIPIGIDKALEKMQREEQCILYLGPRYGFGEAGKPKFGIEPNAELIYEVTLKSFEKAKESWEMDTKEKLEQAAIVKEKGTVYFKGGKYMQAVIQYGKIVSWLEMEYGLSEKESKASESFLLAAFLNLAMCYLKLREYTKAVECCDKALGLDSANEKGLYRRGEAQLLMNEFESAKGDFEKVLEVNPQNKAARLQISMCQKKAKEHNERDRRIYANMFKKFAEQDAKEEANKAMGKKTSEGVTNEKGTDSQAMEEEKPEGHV

[2] = target: T2, Peptidyl-prolyl cis-trans isomerase FKBP4 (Homo sapiens, UniProt Q02790); experiment: Binding affinity to FKBP52 (unknown origin) assessed as inhibition constant by fluorescence polarization assay
T2 sequence (Q02790 whole entry): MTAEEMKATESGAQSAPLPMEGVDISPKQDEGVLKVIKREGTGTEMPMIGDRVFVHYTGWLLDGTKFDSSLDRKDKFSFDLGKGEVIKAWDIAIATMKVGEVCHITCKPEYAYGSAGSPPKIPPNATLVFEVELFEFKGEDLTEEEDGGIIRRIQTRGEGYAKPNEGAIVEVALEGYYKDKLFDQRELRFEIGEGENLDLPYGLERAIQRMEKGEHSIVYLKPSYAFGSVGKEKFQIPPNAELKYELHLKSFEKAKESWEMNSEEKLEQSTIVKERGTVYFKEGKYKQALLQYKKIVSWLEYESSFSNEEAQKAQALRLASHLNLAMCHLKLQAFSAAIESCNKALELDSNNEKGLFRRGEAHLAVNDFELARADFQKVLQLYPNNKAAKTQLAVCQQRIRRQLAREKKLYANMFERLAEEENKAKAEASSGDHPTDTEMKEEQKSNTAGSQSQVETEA

[3] = target: T1, Peptidyl-prolyl cis-trans isomerase FKBP5; experiment: Binding affinity to FKBP51 (unknown origin)
[4] = target: T1, Peptidyl-prolyl cis-trans isomerase FKBP5; experiment: Inhibition of FKBP51 (unknown origin) expressed in HEK293T cells incubated for 2 hrs by NanoBRET assay; assay type: cell-based
[5] = target: Transient receptor potential cation channel subfamily V member 1 (Mus musculus) (UniProt Q704Y3); experiment: Desensitization of TRPV1 in naive C57BL/Nrj mouse dorsal root ganglion primary sensory neurons assessed as reduction in capsaicin-stimulated calcium influx at 1 uM preincubated for 2 mins followed by capsaicin stimulation and measured after 20 secs relative to control; assay type: tissue-based; parameters: scale not given: the % may be the effect or the level left; settings: Primary sensory neuron, time 140.0 sec
[6] = target: Transient receptor potential cation channel subfamily V member 1 (Mus musculus) (UniProt Q704Y3); experiment: Desensitization of TRPV1 in C57BL/Nrj mouse dorsal root ganglion primary sensory neurons assessed as reduction in capsaicin-stimulated calcium influx at 0.5 uM preincubated for 2 mins followed by capsaicin stimulation and measured after 20 secs; assay type: tissue-based; settings: Primary sensory neuron, time 140.0 sec
[7] = Half life in C57BL/6 mouse at 10 mg/kg, ip measured after 6 hrs; assay type: ADME, organism-based; settings: in vivo
[8] = Drug penetration in C57BL/6 mouse brain at 10 mg/kg, ip administered as single dose and measured after 6 hrs; assay type: ADME, organism-based; settings: in vivo
[9] = Tmax in C57BL/6 mouse at 10 mg/kg, ip measured after 6 hrs; assay type: ADME, organism-based; settings: in vivo
[10] = Volume of distribution in C57BL/6 mouse at 10 mg/kg, ip measured after 6 hrs; assay type: ADME, organism-based; settings: in vivo
[11] = Cmax in C57BL/6 mouse at 10 mg/kg, ip measured after 6 hrs; assay type: ADME, organism-based; parameters: time 6 hrs, dose 10 mg/kg, route ip; settings: in vivo
[12] = target: T2, Peptidyl-prolyl cis-trans isomerase FKBP4; experiment: Inhibition of FKBP52 (unknown origin) expressed in HEK293T cells incubated for 2 hrs by NanoBRET assay; assay type: cell-based
[13] = Drug accumulation in C57BL/6 mouse gonadal white adipose tissue at 10 mg/kg, ip administered as single dose and measured after 6 hrs; assay type: ADME, organism-based; settings: in vivo

Sequence of Transient receptor potential cation channel subfamily V member 1 (Mus musculus) (Q704Y3 whole entry): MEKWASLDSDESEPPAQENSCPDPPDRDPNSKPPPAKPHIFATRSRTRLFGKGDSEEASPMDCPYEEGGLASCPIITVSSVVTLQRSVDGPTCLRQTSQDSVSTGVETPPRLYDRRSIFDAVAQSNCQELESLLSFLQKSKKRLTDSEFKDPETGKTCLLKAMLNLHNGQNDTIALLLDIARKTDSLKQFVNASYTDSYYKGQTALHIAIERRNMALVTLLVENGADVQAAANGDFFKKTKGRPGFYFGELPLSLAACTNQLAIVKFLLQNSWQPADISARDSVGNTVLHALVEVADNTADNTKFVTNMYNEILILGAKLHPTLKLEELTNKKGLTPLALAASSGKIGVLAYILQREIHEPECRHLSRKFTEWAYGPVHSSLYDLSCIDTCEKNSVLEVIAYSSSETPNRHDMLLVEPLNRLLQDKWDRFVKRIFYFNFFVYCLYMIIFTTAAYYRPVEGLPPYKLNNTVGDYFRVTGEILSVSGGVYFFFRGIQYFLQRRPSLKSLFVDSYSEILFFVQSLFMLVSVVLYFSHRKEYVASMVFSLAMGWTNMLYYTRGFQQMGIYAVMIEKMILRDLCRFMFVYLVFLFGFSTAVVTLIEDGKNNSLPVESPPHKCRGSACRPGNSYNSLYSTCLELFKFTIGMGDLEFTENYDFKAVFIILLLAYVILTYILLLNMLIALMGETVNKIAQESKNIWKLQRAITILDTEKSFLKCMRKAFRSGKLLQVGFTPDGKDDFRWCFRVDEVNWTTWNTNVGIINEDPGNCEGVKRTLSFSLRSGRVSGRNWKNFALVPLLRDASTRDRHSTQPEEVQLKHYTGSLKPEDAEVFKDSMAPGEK

Structure (SMILES) | Ki [1] [µM] | Ki [2] [µM] | also measured
C=CC[C@@H](C(=O)N1CCCC[C@H]1C(=O)O[C@H](CCc1ccc(OC)c(OC)c1)c1cccc(OCC(=O)O)c1)c1ccc(Cl)s1 | 0.223 | > 10 | 
COc1ccc(CC[C@@H](OC(=O)[C@@H]2CCCCN2C(=O)[C@@H](c2ccsc2)c2cc(OC)c(OC)c(OC)c2)c2cccc(OCC(=O)O)c2)cc1OC | 0.14 | 18 | 
COc1ccc(CC[C@@H](OC(=O)[C@@H]2CCCCN2C(=O)[C@H](c2cc(OC)c(OC)c(OC)c2)C2CCCCC2)c2cccc(OCC(=O)O)c2)cc1OC | 0.006 | 3.86 | 
COc1ccc(CC[C@H]2OC(=O)[C@@H]3CCCCN3C(=O)[C@@H](C3CCCCC3)NC(=O)C3(CC3)NC(=O)COc3cccc2c3)cc1OC |  |  | Ki [3]: 0.4 µM
COc1ccc(CCC(OC(=O)C2CCCCN2C(=O)[C@H](c2cc(OC)c(OC)c(OC)c2)c2ccc(C)s2)c2cccc(OCCN3CCOCC3)c2)cc1OC (single isomer, unassigned) | 0.017 | 0.775 | IC50 [4]: 0.613 µM; Activity [5]: 50%; Activity [6]: Active
COc1ccc(CC[C@@H](OC(=O)[C@@H]2CCCCN2C(=O)[C@H](c2cc(OC)c(OC)c(OC)c2)c2ccc(C)s2)c2cccc(OCC(=O)O)c2)cc1OC | 0.007 | 1.03 | 
COc1ccc(CC[C@H]2OC(=O)[C@@H]3CCCCN3C(=O)[C@@H](C3CCCCC3)c3cc(OC)c(OC)c(c3)OC[C@H](O)[C@H](O)COc3cccc2c3)cc1OC |  |  | Ki [3]: 0.005 µM
COc1ccc(CC[C@@H](OC(=O)[C@@H]2CCCCN2C(=O)C(c2cccs2)C2CCCCC2)c2cccc(OCC(=O)O)c2)cc1OC (stereo partly specified) | 0.442 | > 30 | 
COc1ccc(CCC(OC(=O)C2CCCCN2C(=O)[C@H](c2cc(OC)c(OC)c(OC)c2)c2ccc(Cl)s2)c2cccc(OCCN3CCOCC3)c2)cc1OC (single isomer, unassigned) | 0.019 | 0.774 | IC50 [4]: 0.584 µM; half-life [7]: 4.3 h; Drug uptake [8]: Active; Activity [5]: 50%; Tmax [9]: 0.5 h; Vd [10]: 0.3 L; Cmax [11]: 0.99 µg/mL; IC50 [12]: 2.9 µM; Drug uptake [13]: Active
COc1ccc(CC[C@@H](OC(=O)[C@@H]2CCCCN2C(=O)[C@H](c2cc(OC)c(OC)c(OC)c2)c2ccc(Br)s2)c2cccc(OCC(=O)O)c2)cc1OC | 0.007 | 0.436 | 
COc1ccc(CC[C@@H](OC(=O)[C@@H]2CCCCN2C(=O)C(c2ccc(Cl)s2)C2CCCCC2)c2cccc(OCC(=O)O)c2)cc1OC (stereo partly specified) | 0.154 | > 10 | 
COc1ccc(CC[C@@H](OC(=O)[C@@H]2CCCCN2C(=O)[C@@H](CN2CCOCC2)c2cc(OC)c(OC)c(OC)c2)c2cccc(OCC(=O)O)c2)cc1OC | 0.008 | 2.16 | IC50 [4]: 0.196 µM; half-life [7]: 3.7 h; Tmax [9]: 1 h; Vd [10]: 0.1 L; Cmax [11]: 3.06 µg/mL; IC50 [12]: 3.18 µM
COc1ccc(CC[C@@H](OC(=O)[C@@H]2CCCCN2C(=O)[C@@H](c2ccccc2)c2cc(OC)c(OC)c(OC)c2)c2cccc(OCC(=O)O)c2)cc1OC | 0.118 | 43.8 | 
COc1ccc(CC[C@@H](OC(=O)[C@@H]2CCCCN2C(=O)[C@H](c2cc(OC)c(OC)c(OC)c2)c2ccc(C3CC3)s2)c2cccc(OCC(=O)O)c2)cc1OC | 0.041 | > 1 | 
COc1ccc(CC[C@@H](OC(=O)[C@@H]2CCCCN2C(=O)[C@H](C)c2ccc(Cl)s2)c2cccc(OCC(=O)O)c2)cc1OC | 0.3 | > 50 | 
COc1ccc(CC[C@@H](OC(=O)[C@@H]2CCCCN2C(=O)[C@H](c2cc(OC)c(OC)c(OC)c2)c2ccc(C#N)s2)c2cccc(OCC(=O)O)c2)cc1OC | 0.023 | 2.73 | 
COc1ccc(CC[C@@H](OC(=O)[C@@H]2CCCCN2C(=O)[C@H](c2cc(OC)c(OC)c(OC)c2)c2ccc(Cl)s2)c2cccc(OCC(=O)O)c2)cc1OC | 0.004 | 0.95 | 
CC[C@@H](C(=O)N1CCCC[C@H]1C(=O)O[C@H](CCc1ccc(OC)c(OC)c1)c1cccc(OCC(=O)O)c1)c1ccc(Cl)s1 | 0.21 | > 10 | 
CCc1ccc([C@H](C(=O)N2CCCC[C@H]2C(=O)O[C@H](CCc2ccc(OC)c(OC)c2)c2cccc(OCC(=O)O)c2)c2cc(OC)c(OC)c(OC)c2)s1 | 0.013 | > 1 | 
COc1ccc(CC[C@@H](OC(=O)[C@@H]2CCCCN2C(=O)[C@H](c2cc(OC)c(OC)c(OC)c2)c2cccs2)c2cccc(OCC(=O)O)c2)cc1OC | 0.103 | 10.2 | 
